# Patent publication US20110269695A1, “NOVEL ANTI-AGING PEPTIDES AND COSMETIC AND/OR PHARMACEUTICAL COMPOSITION CONTAINING SAME” (ISP INVESTMENTS, priority 2009, published 2011)
# Where no end group is shown, it is not given here.
# Tests used:
# Clock protein [1] = test: Immunolabeling of Clock protein in skin biopsies ex vivo; format: cell-based, human; conditions: treated skin
# Description: (§1) A study of the activating effect of the peptide SEQ ID no. 3 was carried out by evaluating the expression of Clock, Per-1 and BMAL-1 proteins in skin biopsies ex vivo.
# (§2) Ex vivo studies by immunolabeling have made it possible to evidence the expression of Clock, Per-1 and BMAL-1 proteins in skin samples. Samples of human skin are cultured at the air/liquid interface. The peptide SEQ ID no. 3 diluted to 1% (from a 10^−4M solution) is applied topically to these samples for 48 hr.
# (§3) Skin samples not treated with the peptide SEQ ID no. 3 serve as a control. The skin samples are fixed with 10% formaldehyde and enclosed in paraffin. Sectional cuts of 3 μm are then made with a microtome. The immunolabeling is carried out after removal of the paraffin and unmasking of the antigenic sites. The immunolabeling for the Clock protein is carried out by means of an antibody (ABcam) diluted 1/250 and a secondary antibody diluted 1/50 and coupled to a fluorochrome.
# (§4) The slides are then mounted in a suitable medium and observed under epifluorescence microscope (Nikon Eclipse E600).
# cultured fibroblasts = test: Beta-galactosidase (X-gal) senescence labeling of cultured fibroblasts; format: cell-based; conditions: peptide diluted to 1%, once a day, versus untreated control cells
# Description: A study of the anti-aging effect of the peptide SEQ ID no. 3 was carried out by evaluating the activity of the beta-galactosidase on cultured fibroblasts in the short and long term. In fact, beta-galactosidase is known to be present in senescent cells whereas beta-galactosidase activity is not found in pre-senescent, quiescent or immortal cells.
# Fibroblasts cultured in 8-well labtecks are kept for 2 weeks (short term effect) or 7 weeks (long term effect) in the presence or absence of the peptide SEQ ID no. 3, diluted to 1% (from a 10^−4M solution). The treatment is carried out once a day. The cells which were untreated, but kept in culture for 2 or 7 weeks per the requirements of the experiment serve as controls. On the day of labeling, the cells are rinsed, fixed in a mixture (2% glutaraldehyde-2% formaldehyde) for 3 minutes. The cells are rinsed and 300 μl of (5-bromo-4-chloro-3 indolyl b-D-galactosidase), known commonly as X-gal (substrate of beta-galactosidase), are applied. Incubation is carried out for 24 hr in an incubator in the presence of CO2, then the cells are rinsed and the labteck is quickly placed in a suitable medium. Observation is carried out under transmission microscope. The principle is simple: when the cells are senescent and contain beta-galactosidase, the X-gal substrate is cleaved into a blue, insoluble product.
# Per-1 protein = test: Immunolabeling of Per-1 protein in skin biopsies ex vivo; format: cell-based, human; conditions: treated skin
# Description: as §1, §2, §3
# The immunolabeling for the Per-1 protein is carried out by a polyclonal antibody (Cosmobio) diluted 1/100 and a secondary antibody diluted 1/50 and coupled to a fluorochrome.
# as §4
# BMAL-1 protein = test: Immunolabeling of BMAL-1 protein in skin biopsies ex vivo; format: cell-based, human; conditions: treated skin
# Description: as §1, §2, §3
# The immunolabeling for the BMAL-1 protein is carried out by a polyclonal antibody (Aviva Systems Biology) diluted 1/120 and a secondary antibody diluted 1/50 and coupled to a fluorochrome.
# as §4
# Clock protein [2] = test: Immunolabeling of Clock protein in skin samples aged artificially during culture; format: cell-based, human
# Description: A study of the activating effect of the peptide SEQ ID no. 3 was carried out by evaluating the expression of the Clock protein in skin models, aged artificially during culture. The analysis was carried out after 62 hr and 134 hr of culturing.
# Ex vivo studies by immunolabeling have made it possible to evidence the expression of the Clock protein in skin samples aged during culture. Samples of human skin are cultured at the air/liquid interface for 62 hr and 134 hr. The peptide SEQ ID no. 1 diluted to 1% (from a 10^−4M solution) is applied topically to these samples at a rate of two times per day during the period of the experiment.
# as §3, with “μm are made with” for “μm are then made with”, “of an anti-rabbit antibody (ABcam)” for “of an antibody (ABcam)”
# as §4
# Clock protein [3] = test: Western blot of Clock protein expression in cultured fibroblasts; format: cell-based
# Description: A study of the activating effect of the peptide SEQ ID no. 2 was carried out by evaluating the expression of the Clock proteins by western blot in cultured fibroblasts. The technique of western blotting is a semi-quantitative method which makes it possible to evaluate the level of Clock proteins in cells.
# Cultured fibroblasts are cultivated in containers with a diameter of 100 mm at 37° C. in a humidified atmosphere containing 5% CO2 for 18 hr in the presence or absence of the peptide SEQ ID no. 2, diluted to 1% (from a 10^−4M solution). The cells are rinsed and then removed from the support with the aid of an extraction buffer (20 mM TRIS, 150 mM NaCl, 10 mM EDTA, 0.2% triton […]) in the presence of a cocktail of protease inhibitors (Sigma). The proteins thus extracted are centrifuged at 4° C. at 10,000 rpm for 10 minutes, before being dosed by the BCA protein dosing kit (Pierce). The cellular lysates are mixed with a denaturing buffer and subjected to SDS-PAGE electrophoresis. The gel used is 4-12% Nupage (Invitrogen). The proteins are then transferred to a nitrocellulose membrane (Pal corporation). […] The quantitative evaluation of the proteins present in the cells was carried out using the chemiimager software (Alpha innotech Corporation USA).
Substance,amount of Clock protein versus untreated skin (Clock protein [1]),"Beta-galactosidase activity (blue coloration), short term (cultured fibroblasts; 2 weeks)","Beta-galactosidase activity (blue coloration), long term (cultured fibroblasts; 7 consecutive weeks)",amount of PER-1 protein versus untreated skin (Per-1 protein),amount of BMAL-1 protein versus untreated skin (BMAL-1 protein),"labeling of the Clock protein compared to untreated control, 62 hr (Clock protein [2]; after 62 hr of culturing)","labeling of the Clock protein compared to untreated control, 134 hr (Clock protein [2]; after 134 hr)","Intensity (%) of Clock protein, Experiment 1 (Clock protein [3]; 1% treatment (from a 10^-4M solution), 18 hr, cultured fibroblasts, luminous intensity compared to untreated control (100%)) [%]","amount of Clock protein in the cultured fibroblasts (Clock protein [3]; peptide diluted to 1%, western blot)"
Ser-Thr-Pro-NH2 [SEQ ID no. 3],greater,largely reduced,largely reduced,greater,greater,increased,largely increased,–,–
Val-Ser-Thr-Pro-Glu-NH2 (VSTPE-NH2) [SEQ ID no. 2],–,–,–,–,–,–,–,154,significantly increases
